The text below walks through data of publication PMC12751012, “Nanoscale Direct-to-Biology Optimization and Structural Insights into Selective S. aureus TrmD Inhibitors” (Journal of Medicinal Chemistry, 2025).

The experiment has as its target T1, S. aureus TrmD (Staphylococcus aureus, UniProt Q2FZ43).
T1 construct: made in house; host or cells: E. coli BL21
T1 sequence (Q2FZ43 1-245): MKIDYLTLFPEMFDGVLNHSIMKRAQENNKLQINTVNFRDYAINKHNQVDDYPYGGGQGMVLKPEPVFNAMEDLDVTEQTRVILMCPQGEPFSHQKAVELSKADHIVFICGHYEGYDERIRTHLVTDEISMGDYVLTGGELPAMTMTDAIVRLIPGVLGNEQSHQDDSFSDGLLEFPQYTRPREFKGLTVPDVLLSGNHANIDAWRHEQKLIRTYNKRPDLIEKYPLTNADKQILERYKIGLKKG
Put plainly: nanoSAR direct-to-biology FP displacement screening of crude triazoles. The format is binding. Conditions: crude triazole at 1 μM, assuming full conversion; 500 nM TrmD, 10 nM tracer 4; read-out: % displaced tracer. The gist of the method:
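S. aureus TrmD (500 nM) with tracer 4 (10 nM) in Tris/NaCl/MgCl2/glycerol buffer, pH 7.5, was challenged with unpurified triazoles from in situ CuAAC of alkyne 7 with a 320-member azide library.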
Consider `O=c1[nH]cnc2[nH]cc(-c3cn(-c4cccc(Cl)c4-c4nnn[nH]4)nn3)c12` [Compound 02G02, Clc1c(c(N2N=NC(C=3C=4C(=O)NC=NC4NC3)=C2)ccc1)C=5[N-]N=NN5], for which the inhibition at 1 µM came out at 15%.

In the case of `CCc1nc(C)c(Cn2cc(-c3c[nH]c4nc[nH]c(=O)c34)nn2)o1` [Compound 01G02, O=C1NC=NC=2NC=C(C=3N=NN(C3)CC=4OC(=NC4C)CC)C12], the inhibition at 1 µM was 71%. Turning to `O=c1[nH]cnc2[nH]cc(-c3cn([C@@H]4C[C@H]5CCC[C@@H](C4)N5)nn3)c12` [Compound 01A08, O=C1NC=NC=2NC=C(C=3N=NN(C3)[C@@H]4C[C@@H]5[NH2+][C@H](C4)CCC5)C12], the inhibition at 1 µM stood at 38%. Turning to `O=c1[nH]cnc2[nH]cc(-c3cn(C4(c5ccc(F)cc5)CCOCC4)nn3)c12` [Compound 02C10, Fc1ccc(cc1)C2(N3N=NC(C=4C=5C(=O)NC=NC5NC4)=C3)CCOCC2], the inhibition at 1 µM was determined as 6%. As to `C[C@@H](n1cc(-c2c[nH]c3nc[nH]c(=O)c23)nn1)C12CC(CO1)C2` [Compound 01F11, O=C1NC=NC=2NC=C(C=3N=NN(C3)[C@@H](C45OCC(C4)C5)C)C12], the inhibition at 1 µM stood at 26%. To `CC[C@@H](c1ccccc1F)n1cc(-c2c[nH]c3nc[nH]c(=O)c23)nn1` [Compound 02B09, Fc1c(cccc1)[C@@H](N2N=NC(C=3C=4C(=O)NC=NC4NC3)=C2)CC] belongs 24%; to `O=c1[nH]cnc2[nH]cc(-c3cn(Cc4cccnn4)nn3)c12` [Compound 01A03, O=C1NC=NC=2NC=C(C=3N=NN(C3)Cc4nnccc4)C12], 65%.

Regarding `CC(C)(C)OC(=O)N1CC(c2ocnc2Cn2cc(-c3c[nH]c4nc[nH]c(=O)c34)nn2)C1` [Compound 02B10, O=C(OC(C)(C)C)N1C[C@H](C=2OC=NC2CN3N=NC(C=4C=5C(=O)NC=NC5NC4)=C3)C1], the inhibition at 1 µM was 37%.

On to `O=c1[nH]cnc2[nH]cc(-c3cn(CCc4ccccn4)nn3)c12` [Compound 04G02, O=C1NC=NC=2NC=C(C=3N=NN(C3)CCc4ncccc4)C12], for which the inhibition at 1 µM is 89%. Consider `COc1ccc(Cl)c(-n2cc(-c3c[nH]c4nc[nH]c(=O)c34)nn2)c1` [Compound 02D02, Clc1c(N2N=NC(C=3C=4C(=O)NC=NC4NC3)=C2)cc(OC)cc1], for which the inhibition at 1 µM came out at 3%. To `CN1CC[C@@H](n2cc(-c3c[nH]c4nc[nH]c(=O)c34)nn2)C1=O` [Compound 03E02, O=C1NC=NC=2NC=C(C=3N=NN(C3)[C@H]4C(=O)N(CC4)C)C12] belongs 27%.

Consider `O=c1[nH]cnc2[nH]cc(-c3cn(CCCOC4CCC4)nn3)c12` [Compound 01C08, O=C1NC=NC=2NC=C(C=3N=NN(C3)CCCOC4CCC4)C12], for which the inhibition at 1 µM was 27%.

As to `O=C(c1ccco1)n1cc(-c2c[nH]c3nc[nH]c(=O)c23)nn1` [Compound 01G07, O=C(N1N=NC(C=2C=3C(=O)NC=NC3NC2)=C1)C=4OC=CC4], the inhibition at 1 µM is 28%. Turning to `Cc1nnc(Cn2cc(-c3c[nH]c4nc[nH]c(=O)c34)nn2)o1` [Compound 01C02, O=C1NC=NC=2NC=C(C=3N=NN(C3)CC=4OC(=NN4)C)C12], the inhibition at 1 µM amounted to 27%. To `O=c1[nH]cnc2[nH]cc(-c3cn(-c4ccc(S(F)(F)(F)(F)F)cc4)nn3)c12` [Compound 03A04, S(F)(F)(F)(F)(F)c1ccc(N2N=NC(C=3C=4C(=O)NC=NC4NC3)=C2)cc1] belongs 16%; to `O=c1[nH]cnc2[nH]cc(-c3cn(Cc4nnc(C5CC5)o4)nn3)c12` [Compound 04E03, O=C1NC=NC=2NC=C(C=3N=NN(C3)CC=4OC(=NN4)C5CC5)C12], 44%; to `Cc1ccc(O)c(Cn2cc(-c3c[nH]c4nc[nH]c(=O)c34)nn2)n1` [Compound 02C01, O=C1NC=NC=2NC=C(C=3N=NN(C3)Cc4nc(ccc4O)C)C12], 32%. As to `CC(CO)(CO)Cn1cc(-c2c[nH]c3nc[nH]c(=O)c23)nn1` [Compound 03B02, O=C1NC=NC=2NC=C(C=3N=NN(C3)CC(CO)(CO)C)C12], the inhibition at 1 µM came to 67%. To `O=c1[nH]cnc2[nH]cc(-c3cn(CC(F)(F)F)nn3)c12` [Compound 03A11, FC(F)(F)CN1N=NC(C=2C=3C(=O)NC=NC3NC2)=C1] belongs 14%; to `C[C@@H]1CNC[C@H]1n1cc(-c2c[nH]c3nc[nH]c(=O)c23)nn1` [Compound 03B12, O=C1NC=NC=2NC=C(C=3N=NN(C3)[C@H]4[C@@H](C[NH2+]C4)C)C12], 19%; to `C[C@@H](c1cnnn1C)n1cc(-c2c[nH]c3nc[nH]c(=O)c23)nn1` [Compound 01C01, O=C1NC=NC=2NC=C(C=3N=NN(C3)[C@H](C=4N(N=NC4)C)C)C12], 33%. In the case of `O=c1[nH]cnc2[nH]cc(-c3cn(S(=O)(=O)c4ccc5c(c4)CCO5)nn3)c12` [Compound 02A06, O=S(C1=CC2=C(OCC2)C=C1)(N3N=NC(C4=CNC(N=CN5)=C4C5=O)=C3)=O], the inhibition at 1 µM is -1.83%. For the compound `C[C@@H](C(=O)N1CCCC1)n1cc(-c2c[nH]c3nc[nH]c(=O)c23)nn1` [Compound 02E11, O=C1NC=NC=2NC=C(C=3N=NN(C3)[C@H](C(=O)N4CCCC4)C)C12], the inhibition at 1 µM was determined as 20%. In the case of `O=c1[nH]cnc2[nH]cc(-c3cn(-c4ccc5c(c4)NCC5)nn3)c12` [Compound 03C06, O=C1NC=NC=2NC=C(C=3N=NN(c4cc5NCCc5cc4)C3)C12], the inhibition at 1 µM was determined as 25%. With `O=c1[nH]cnc2[nH]cc(-c3cn([C@H]4CC[C@@H]4O)nn3)c12` [Compound 01D04, O=C1NC=NC=2NC=C(C=3N=NN(C3)[C@@H]4[C@@H](O)CC4)C12], the inhibition at 1 µM is 21%. Turning to `N#CCCCn1cc(-c2c[nH]c3nc[nH]c(=O)c23)nn1` [Compound 02E02, O=C1NC=NC=2NC=C(C=3N=NN(C3)CCCC#N)C12], the inhibition at 1 µM was found to be 35%. For `O=c1[nH]cnc2[nH]cc(-c3cn(C4CCCCC4)nn3)c12` [Compound 02A08, O=C1NC=NC=2NC=C(C=3N=NN(C3)C4CCCCC4)C12], the inhibition at 1 µM is 11%.

Turning to `O=c1[nH]cnc2[nH]cc(-c3cn(-c4ccccc4Cl)nn3)c12` [Compound 02F03, Clc1c(N2N=NC(C=3C=4C(=O)NC=NC4NC3)=C2)cccc1], the inhibition at 1 µM was 22%. Consider `O=c1[nH]cnc2[nH]cc(-c3cn(-c4cccc(F)c4)nn3)c12` [Compound 04H04, Fc1cc(N2N=NC(C=3C=4C(=O)NC=NC4NC3)=C2)ccc1], for which the inhibition at 1 µM came out at 16%. To `CC1(Cn2cc(-c3c[nH]c4nc[nH]c(=O)c34)nn2)COC1` [Compound 01H02, O=C1NC=NC=2NC=C(C=3N=NN(C3)CC4(COC4)C)C12] belongs 58%. In the case of `O=c1[nH]cnc2[nH]cc(-c3cn(C[C@H]4CCCNC4)nn3)c12` [Compound 03H01, O=C1NC=NC=2NC=C(C=3N=NN(C3)C[C@@H]4C[NH2+]CCC4)C12], the inhibition at 1 µM came to 56%.

With `CC(C)CCn1cc(-c2c[nH]c3nc[nH]c(=O)c23)nn1` [Compound 01A09, O=C1NC=NC=2NC=C(C=3N=NN(C3)CCC(C)C)C12], the inhibition at 1 µM was determined as 26%. `CCc1nnc(Cn2cc(-c3c[nH]c4nc[nH]c(=O)c34)nn2)o1` [Compound 01D06, O=C1NC=NC=2NC=C(C=3N=NN(C3)CC=4OC(=NN4)CC)C12]: the inhibition at 1 µM amounted to 31%. As for `NCCCCn1cc(-c2c[nH]c3nc[nH]c(=O)c23)nn1` [Compound 02E04, O=C1NC=NC=2NC=C(C=3N=NN(C3)CCCC[NH3+])C12], the inhibition at 1 µM is 16%.
